The text below walks through data of patent publication US10343985B2, “Cryopyrin inhibitors for preventing and treating inflammation” (VIRGINIA COMMONWEALTH UNIVERSITY, priority 2013, dated 2019).

Like-named read-outs stand apart in the source and are kept apart here.

Series [1] deals with healthy mice. The experiment in a line: Toxic effects and glucose levels in healthy control mice.
Series [2] addresses NLRP3 inflammasome (Homo sapiens, UniProt Q96P20). The note with it: literature reports, cited from earlier work.
The subject of series [3] is insulin. The note with it: Lamkanfi et al. 2009; cited from earlier work.
Series [4] addresses T1, NLRP3 inflammasome (Mus musculus, UniProt Q8R4B8). The series can be described thus: Acute myocardial infarction, single i.p. dose at reperfusion, infarct size (TTC). The format is in vivo. Also on record: from tissue; host or cells: live mice: heart (infarction and doxorubicin models) and peritoneal cavity (zymosan A). The note with it: experiment with G1; 100 mg/kg i.p. at reperfusion; 24 hours; vs vehicle.
Description: Experimental AMI was induced in mice by transient myocardial ischemia for 30 min followed by 24 hours of reperfusion. […] The heart were explanted at 24 hours and processed for the measurement of infarct size using triphenyl tetrazolium chloride (TTC staining). The areas of infarcted tissue, the risk zone, and the whole LV areas are determined by computer morphometry using Image Pro® Plus 6.0 software (Media Cybernetics, Silver Spring, Md.).
As described above, experimental AMI was induced by transient myocardial ischemia for 30 min followed by 24 hours of reperfusion.

Series [5] concerns the target T1, NLRP3 inflammasome. The experiment in a line: Caspase-1 enzymatic activity in HL-1 cardiomyocytes. The format is cell-based, murine. Also on record: immortalized adult murine cardiomyocytes (HL-1) cells were used; endogenous in cells; host or cells: HL-1 murine cardiomyocytes. The note with it: LPS/ATP, compound 400 μM.
Description: In separate experiments, immortalized adult murine cardiomyocytes (HL-1) cells were used. […] Formation of the NLRP3 inflammasome in HL-1 cells was determined and quantified by ASC aggregation (immunohistochemistry), caspase-1 activity (enzymatic activity) and cell death (trypan blue exclusion method), as previously described. […] As readout for the NLRP3 inflammasome activation, caspase-1 enzymatic activity and cell death were evaluated. Briefly, HL-1 cells (2×10^6 cells) were plated in 90-mm dishes and NLRP3 inflammasome formation was induced as described above. After treatments, to measure caspase-1 activity, the cells were washed, harvested, and frozen. The pellet was resuspended using RIPA buffer (Sigma-Aldrich) containing a mixture of protease inhibitors (Sigma-Aldrich) and centrifuged at 16,200×g for 20 min. The supernatants were collected and the protein contents were quantified using the Bradford assay. The caspase-1 activity was determined by measuring the fluorescence produced by the cleavage of a fluorogenic substrate. The fluorescence was reported as arbitrary fluorescence units produced by 1 μg of sample per min (fluorescence/μg/min).
Series [6] concerns the target T1, NLRP3 inflammasome. The experiment in a line: Cell death in HL-1 cardiomyocytes (trypan blue exclusion). Also on record: immortalized adult murine cardiomyocytes (HL-1) cells were used; endogenous in cells; host or cells: HL-1 murine cardiomyocytes. The format is cell-based, murine.

T1 sequence (Q8R4B8 whole entry, the tested form may be a part): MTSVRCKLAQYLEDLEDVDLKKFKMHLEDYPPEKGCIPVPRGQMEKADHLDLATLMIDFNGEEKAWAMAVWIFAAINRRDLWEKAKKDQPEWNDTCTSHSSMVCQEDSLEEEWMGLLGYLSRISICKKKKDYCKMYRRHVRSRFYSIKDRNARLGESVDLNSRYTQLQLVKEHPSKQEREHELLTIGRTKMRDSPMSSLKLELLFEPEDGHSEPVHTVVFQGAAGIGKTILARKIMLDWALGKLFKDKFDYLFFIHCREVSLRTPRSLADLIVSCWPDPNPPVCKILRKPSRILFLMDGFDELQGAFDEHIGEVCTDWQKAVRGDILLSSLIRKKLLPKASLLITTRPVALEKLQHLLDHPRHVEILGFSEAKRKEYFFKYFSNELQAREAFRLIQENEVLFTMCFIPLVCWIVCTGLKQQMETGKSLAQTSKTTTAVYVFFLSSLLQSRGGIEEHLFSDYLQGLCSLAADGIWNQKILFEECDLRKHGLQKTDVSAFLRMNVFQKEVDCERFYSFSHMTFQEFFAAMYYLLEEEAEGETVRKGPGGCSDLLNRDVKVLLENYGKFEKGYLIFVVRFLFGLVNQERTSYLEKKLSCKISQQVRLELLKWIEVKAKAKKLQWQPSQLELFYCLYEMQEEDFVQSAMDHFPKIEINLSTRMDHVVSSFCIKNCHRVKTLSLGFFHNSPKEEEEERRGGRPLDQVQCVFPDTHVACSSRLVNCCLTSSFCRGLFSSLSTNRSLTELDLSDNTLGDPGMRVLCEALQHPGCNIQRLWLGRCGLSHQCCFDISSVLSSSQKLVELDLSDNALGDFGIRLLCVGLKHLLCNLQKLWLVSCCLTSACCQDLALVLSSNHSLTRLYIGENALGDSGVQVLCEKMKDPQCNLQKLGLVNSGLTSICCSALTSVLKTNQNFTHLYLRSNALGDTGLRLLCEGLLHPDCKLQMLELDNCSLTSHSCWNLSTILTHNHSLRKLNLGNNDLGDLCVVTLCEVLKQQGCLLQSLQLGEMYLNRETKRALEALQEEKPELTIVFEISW
Sequence of NLRP3 inflammasome (Homo sapiens, UniProt Q96P20) (Q96P20 whole entry): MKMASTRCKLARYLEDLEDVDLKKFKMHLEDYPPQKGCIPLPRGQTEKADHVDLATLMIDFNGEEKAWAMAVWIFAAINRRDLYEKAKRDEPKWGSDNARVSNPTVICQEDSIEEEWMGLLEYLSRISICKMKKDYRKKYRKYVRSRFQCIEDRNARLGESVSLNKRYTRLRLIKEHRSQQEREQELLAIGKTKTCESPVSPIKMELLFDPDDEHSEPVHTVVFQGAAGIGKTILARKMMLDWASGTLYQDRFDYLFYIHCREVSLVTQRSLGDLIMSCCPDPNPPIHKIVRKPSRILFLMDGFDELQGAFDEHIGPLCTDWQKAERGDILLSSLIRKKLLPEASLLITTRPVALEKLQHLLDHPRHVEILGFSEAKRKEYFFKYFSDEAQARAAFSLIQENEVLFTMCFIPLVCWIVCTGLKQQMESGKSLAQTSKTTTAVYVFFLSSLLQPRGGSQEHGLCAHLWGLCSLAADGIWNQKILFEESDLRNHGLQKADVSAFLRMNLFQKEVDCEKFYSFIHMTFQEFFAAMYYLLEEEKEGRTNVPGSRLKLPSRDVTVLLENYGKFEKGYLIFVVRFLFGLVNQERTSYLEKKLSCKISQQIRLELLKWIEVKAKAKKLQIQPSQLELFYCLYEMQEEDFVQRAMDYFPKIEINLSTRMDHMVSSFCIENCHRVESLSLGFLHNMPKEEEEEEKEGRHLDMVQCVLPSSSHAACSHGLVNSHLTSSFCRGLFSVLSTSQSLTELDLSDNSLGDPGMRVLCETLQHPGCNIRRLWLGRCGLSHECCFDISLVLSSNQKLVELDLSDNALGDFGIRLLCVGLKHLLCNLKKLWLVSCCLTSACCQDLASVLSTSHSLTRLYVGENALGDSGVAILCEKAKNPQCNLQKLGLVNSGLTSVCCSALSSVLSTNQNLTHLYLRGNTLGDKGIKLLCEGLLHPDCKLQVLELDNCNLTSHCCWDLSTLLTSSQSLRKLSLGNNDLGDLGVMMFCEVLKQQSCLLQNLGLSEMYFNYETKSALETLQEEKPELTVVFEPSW

On to `COc1ccc(Cl)cc1C(=O)NCCc1ccc(S(=O)(=O)NC(=O)NC2CCCCC2)cc1` [glyburide], for which, in series [1] (100 mg/kg every 6 hours for 3 doses), the “lethal within 3 days, share of mice” value is recorded as 50%. For the same compound, the “glucose levels 2 hours after a single dose” value in series [1] (16673-34-0 100 mg/kg, (equimolar)) is listed as “significant reduction”. In addition, in series [1] (daily doses of 500 mg/kg), the “lethal in 3 days, share of mice” value came to 100%. Moreover, the “mortality in healthy mice” value in series [1] (every 6 hours for 24 hours, 16673-34-0 100 mg/kg) was determined as 50%. The plasma glucose levels entry in series [1] (healthy mice, single and repeated injections, glyburide effect as early as 2 hours) is “significant reduction”.
For `COc1ccc(Cl)cc1C(=O)NCCc1ccc(S(=O)(=O)Cl)cc1` [Compound G1, 4-(2-[(5-chloro-2-methoxyphenyl)formamido]ethyl)benzene-1-sulfonyl chloride], the “inhibition of cryopyrin / NLRP3 inflammasome in vitro” value in series [2] was “inhibited”; in series [2] (listed as compound 1) it was “retain some of the anti-inflammatory activity of glyburide”. Further, the effect on insulin result in series [3] is on record as “no effect”. In series [4], the “infarct size (% area at risk)” value is given as “no effect”.
For the compound `COc1ccc(Cl)cc1C(=O)NCCc1ccccc1` [Compound 6 in FIG. 3, 5-chloro-2-methoxy-N-(2-phenylethyl)-benzamide], the caspase-1 activity entry in series [5] is given as “failed to inhibit”; in series [5] (listed as intermediate compound), “no inhibitory effects”. Also, the cell death entry is on record as “failed” in series [6] and “no inhibitory effects” in series [6] (HL-1, LPS/ATP, compound 400 μM).
